Results: patent US4472388A, “N-Methanesulfonic acid derivatives of 3-O-demethylistamycin B and production thereof” (Zaidan Hojin Biseibutsu Kagaku Kenkyu Kai, priority 1982, dated 1984)
In brackets after ≈: the same amount, converted by molar mass.

How the values were obtained:
[1] = tested on: gram-negative and gram-positive bacteria, including Pseudomonas aeruginosa; conditions: cited earlier filings; cited from earlier work
[2] = Acute toxicity, intravenous administration in mice; assay type: in vivo; conditions: ICR mice
Protocol: A test compound was diissolved in 0.25 ml of a physiological saline solution and the solution of the test compound so prepared was intravenously administered into a series of mouse groups each consisting of six mice (ICR strain, adult female, body weight 20 g±0.5 g) as the test animal, […] Acute toxicity of 3-O-demethylistamycin B was also estimated in the same manner as above for the comparison purpose. […]

[3] = tested on: Escherichia coli K-12; assay: Minimum inhibitory concentration, serial dilution on Mueller-Hinton agar; assay type: cell-based; conditions: K12, 37° C., 17 hours
Source text: (§1) Minimum inhibitory concentrations (mcg/ml) of the parent 3-O-demethylistamycin B were also estimated in the same manner for the comparison purpose and also are shown in Table 1.

[4] = tested on: Escherichia coli K-12 C600 R135; assay: as above; assay type: cell-based; conditions: K12C600R135, 37° C., 17 hours
Source text: as §1

[5] = tested on: Escherichia coli JR225; assay: as above; assay type: cell-based; conditions: JR225, 17 h, read-out: Minimum inhibitory concentration
Source text: as §1

[6] = tested on: Staphylococcus aureus Ap01; assay: as above; assay type: cell-based; conditions: 37° C., 17 hours
Source text: as §1

[7] = tested on: Escherichia coli K-12 LA290 R55; assay: as above; assay type: cell-based
Source text: as §1

[8] = tested on: Escherichia coli K-12 R5; assay: as above; assay type: cell-based
Source text: as §1

[9] = tested on: Pseudomonas aeruginosa A3; assay: as above; assay type: cell-based; conditions: for Minimum inhibitory concentration: Pseudomonas aeruginosa A3, Mueller-Hinton agar, 37° C., 17 hours
Source text: as §1

[10] = tested on: Providencia Pv 16; assay: as above; assay type: cell-based; conditions: 17 hours; for Minimum inhibitory concentration: 37° C.
Source text: as §1

[11] = tested on: Escherichia coli K-12 ML1629; assay: as above; assay type: cell-based; conditions: K12ML1629, 37° C., 17 hours
Source text: as §1

[12] = tested on: Pseudomonas aeruginosa GN315; assay: as above; assay type: cell-based; conditions: for Minimum inhibitory concentration: Pseudomonas aeruginosa GN315, Mueller-Hinton agar, 37° C., 17 hours
Source text: as §1

[13] = tested on: Serratia marcescens; assay: as above; assay type: cell-based; conditions: for Minimum inhibitory concentration: Mueller-Hinton agar, 37° C., 17 hours
Source text: as §1

[14] = tested on: Escherichia coli JR66/W677; assay: as above; assay type: cell-based; conditions: for Minimum inhibitory concentration: Escherichia coli JR66/W677, Mueller-Hinton agar, 37° C., 17 hours
Source text: as §1

[15] = tested on: Pseudomonas aeruginosa H9; assay: as above; assay type: cell-based; conditions: 37° C., 17 hours
Source text: as §1

[16] = tested on: Pseudomonas aeruginosa TI-13; assay: as above; assay type: cell-based; conditions: for Minimum inhibitory concentration: Pseudomonas aeruginosa TI-13, Mueller-Hinton agar, 37° C., 17 hours
Source text: as §1

[17] = tested on: Staphylococcus aureus 209P; assay: as above; assay type: cell-based; conditions: 37° C., 17 hours
Source text: as §1

Molecule	Minimum inhibitory concentration [6] [µg/mL]	Minimum inhibitory concentration [9] [µg/mL]	Minimum inhibitory concentration [10] [µg/mL]	Minimum inhibitory concentration [12] [µg/mL]	Minimum inhibitory concentration [13] [µg/mL]	Minimum inhibitory concentration [14] [µg/mL]	Minimum inhibitory concentration [15] [µg/mL]	Minimum inhibitory concentration [16] [µg/mL]	Minimum inhibitory concentration [17] [µg/mL]	also measured
CNCC1CCC(N)C(OC2C(N)CC(O)C(N(C)C(=O)CN)C2O)O1 (centres unmarked) [3-O-demethylistamycin B]										antibacterial activity [1]: high antibacterial activity; death of mice ([2]; 320 mg/kg, within 24 hours): all mice died within 24 hours; LD50 ([2]; mouse, in vivo, adult female): 160 to 320 mg/kg; MIC [3]: 0.78 µg/mL (≈ 2.08 µM); MIC [4]: 1.56 µg/mL (≈ 4.15 µM); MIC [5]: 0.78 µg/mL (≈ 2.08 µM); MIC [6]: 0.39 µg/mL (≈ 1.04 µM); MIC ([7]; Escherichia coli, K12LA290R55, 17 h, read-out: Minimum inhibitory concentration): 0.78 µg/mL (≈ 2.08 µM); MIC ([8]; Escherichia coli, K12R5, 17 h, read-out: Minimum inhibitory concentration): 3.13 µg/mL (≈ 8.34 µM); MIC ([9]; Pseudomonas aeruginosa, A3, 17 h, read-out: Minimum inhibitory concentration): 0.2 µg/mL (≈ 0.533 µM); MIC ([10]; PV16, 37° C.): 0.78 µg/mL (≈ 2.08 µM); MIC [11]: 1.56 µg/mL (≈ 4.15 µM); MIC ([12]; Pseudomonas aeruginosa, GN315, 17 h, read-out: Minimum inhibitory concentration): 6.25 µg/mL (≈ 16.6 µM); MIC ([13]; 17 h, read-out: Minimum inhibitory concentration): 1.56 µg/mL (≈ 4.15 µM); MIC ([14]; Escherichia coli, JR66/W677, 17 h, read-out: Minimum inhibitory concentration): 1.56 µg/mL (≈ 4.15 µM); MIC [15]: 12.5 µg/mL (≈ 33.3 µM); MIC ([16]; Pseudomonas aeruginosa, TI13, 17 h, read-out: Minimum inhibitory concentration): 6.25 µg/mL (≈ 16.6 µM); MIC [17]: 0.39 µg/mL (≈ 1.04 µM)
3-O-demethylistamycin B-tri-N-methanesulfonic acid sodium salt [Compound (3)]	1.56	0.78	3.13	12.5	12.5	6.25	12.5	6.25	0.78	
3-O-demethylistamycin B-di-N-methanesulfonic acid sodium salt [Compound (2)]	1.56	3.13	3.13	6.25	12.5	6.25	12.5	6.25	1.56	
3-O-demethylistamycin B-tetra-N-methanesulfonic acid sodium salt [Compound (4)]	3.13	1.56	6.25	25	25	25	25	25	1.56	Minimum inhibitory concentration ([7]; Escherichia coli K-12 LA290 R55, Mueller-Hinton agar, 37° C., 17 hours): 12.5 µg/mL; Minimum inhibitory concentration ([8]; Escherichia coli K-12 R5, Mueller-Hinton agar, 37° C., 17 hours): 25 µg/mL
3-O-demethylistamycin B-mono-N-methanesulfonic acid sodium salt [Compound (1)]	1.56	0.78	3.13	12.5	6.25	6.25	12.5	6.25	0.78	
